# Data reported in patent US20170355691A1, “PESTICIDALLY ACTIVE HETEROCYCLIC DERIVATIVES WITH SULPHUR CONTAINING SUBSTITUENTS” (Syngenta Participations AG, priority 2015, published 2017).
# Experiments:
# Assay type in all cases: in vivo
# [1] = system: Myzus persicae (green peach aphid); test: Activity against Myzus persicae, sunflower leaf disc spray (Example B5); conditions: foliar, 144 h, mixed-age aphid population on sunflower leaf discs, 6 days after infestation
# Description: Example B5: Activity Against Myzus persicae (Green Peach Aphid)
# Sunflower leaf discs were placed on agar in a 24-well microtiter plate and sprayed with aqueous test solutions prepared from 10′000 ppm DMSO stock solutions. After drying, the leaf discs were infested with an aphid population of mixed ages. The samples were assessed for mortality 6 days after infestation.
# [2] = system: Plutella xylostella (diamond back moth); test: Activity against Plutella xylostella, artificial diet (Example B2); conditions: 120 h, L2 larvae on artificial diet, 5 days after infestation, read-out: effect in at least one of the two categories (mortality or growth inhibition)
# Description: Example B2: Activity Against Plutella xylostella (Diamond Back Moth)
# 24-well microtiter plates with artificial diet were treated with aqueous test solutions prepared from 10′000 ppm DMSO stock solutions by pipetting. After drying, the plates were infested with L2 larvae (10 to 15 per well). The samples were assessed for mortality and growth inhibition in comparison to untreated samples 5 days after infestation. The following compounds gave an effect of at least 80% in at least one of the two categories (mortality or growth inhibition) at an application rate of 200 ppm: P1.3, P1.6, P1.7, P1.8, P1.9, P1.13, P1.14, P1.15, P1.16, P1.17 and P1.18.
# [3] = system: Anopheles stephensi (Indian malaria mosquito); test: Activity against Anopheles stephensi, dry deposit in tissue culture plates (Example B11); conditions: 200 ppm in ethanol, adult females, after 48 h and/or 24 h
# Description: Example B11: Activity Against Anopheles stephensi (Indian Malaria Mosquito)
# Test solutions, at an application rate of 200 ppm in ethanol, were applied to 12 well tissue culture plates. Once the deposits were dry, five, two to five day old adult female Anopheles stephensi were added to each well, and sustained with a 10% sucrose solution in a cotton wool plug. Assessment of knockdown was made one hour after introduction, and mortality was assessed at 24 and 48 hours after introduction. The following compounds gave at least 80% control of Anopheles stephensi after 48 h and/or 24 h: P1.14.
# [4] = system: Spodoptera littoralis (Egyptian cotton leaf worm); test: Activity against Spodoptera littoralis, cotton leaf disc spray (Example B1); conditions: foliar, 72 h, L1 larvae on cotton leaf discs, 3 days after infestation, read-out: control in at least one of the three categories (mortality, anti-feedancy or growth inhibition)
# Description: Example B1: Activity Against Spodoptera littoralis (Egyptian Cotton Leaf Worm)
# Cotton leaf discs were placed on agar in 24-well microtiter plates and sprayed with aqueous test solutions prepared from 10′000 ppm DMSO stock solutions. After drying the leaf discs were infested with five L1 larvae. The samples were assessed for mortality, anti-feedant effect, and growth inhibition in comparison to untreated samples 3 days after infestation. Control of Spodoptera littoralis by a test sample is when at least one of mortality, anti-feedant effect, and growth inhibition is higher than the untreated sample. The following compounds gave an effect of at least 80% control in at least one of the three categories (mortality, anti-feedancy or growth inhibition) at an application rate of 200 ppm: P1.2, P1.3, P1.6, P1.7, P1.8, P1.9, P1.10, P1.12, P1.13, P1.14, P1.15, P1.16, P1.17 and P1.18.
# [5] = system: Euschistus heros (neotropical brown stink bug); test: Activity against Euschistus heros, soybean leaf spray (Example B7); conditions: 120 h, N-2 nymphs on soybean leaf, 5 days after infestation
# Description: Example B7: Activity Against Euschistus heros (Neotropical Brown Stink Bug)
# Soybean leaf on agar in 24-well microtiter plates were sprayed with aqueous test solutions prepared from 10′000 ppm DMSO stock solutions. After drying the leaf were infested with N-2 nymphs. The samples were assessed for mortality 5 days after infestation.
# [6] = system: Diabrotica balteata (corn root worm); test: Activity against Diabrotica balteata, maize sprouts (Example B3); conditions: 96 h, L2 larvae on maize sprouts, 4 days after infestation, read-out: effect in at least one of the two categories (mortality or growth inhibition)
# Description: Example B3: Activity Against Diabrotica balteata (Corn Root Worm)
# Maize sprouts, placed on an agar layer in 24-well microtiter plates were treated with aqueous test solutions prepared from 10′000 ppm DMSO stock solutions by spraying. After drying, the plates were infested with L2 larvae (6 to 10 per well). The samples were assessed for mortality and growth inhibition in comparison to untreated samples 4 days after infestation. The following compounds gave an effect of at least 80% in at least one of the two categories (mortality or growth inhibition) at an application rate of 200 ppm: P1.1, P1.2, P1.6, P1.7, P1.8, P1.9, P1.10, P1.13, P1.14, P1.15, P1.16, P1.17 and P1.18.
smiles,measurement,setting,value
CCS(=O)(=O)c1cc(C(F)(F)F)ccc1-n1cc(-c2ccc(C(F)(F)F)nc2)cn1 [Compound P1.14],mortality at 200 ppm,[1],≥ 80%
same,percent effect (mortality or growth inhibition) at 200 ppm,[2],≥ 80%
same,control of Anopheles stephensi,[3],at least 80%
same,"percent control (mortality, anti-feedant effect or growth inhibition) at 200 ppm",[4],≥ 80%
same,mortality at 200 ppm,[5],≥ 80%
same,percent effect (mortality or growth inhibition) at 200 ppm,[6],≥ 80%
